# Measurements from the NIST ThermoML archive (doi:10.1016/j.jct.2004.12.014).
# Numbers after ± are expanded uncertainties.
# Legend:
# [1] = xn = mol fraction of the nth substance listed; details: 318.15 K, 101 kPa, Liquid
# [2] = excess molar enthalpy (molar enthalpy of mixing); xn = mol fraction of the nth substance listed; details: 318.15 K, 101 kPa, Liquid
smiles,measurement,setting,value
CCCCCOC(=O)CC [pentyl propanoate] + CCCCCCCCCCCCCCCCC,excess molar volume,[1]; x1 = 0.1083,2.44e-07 ± 1.7e-08 m3/mol
same,excess molar volume,[1]; x1 = 0.2045,4.6e-07 ± 1.8e-08 m3/mol
same,excess molar volume,[1]; x1 = 0.2891,6.18e-07 ± 1.8e-08 m3/mol
same,excess molar volume,[1]; x1 = 0.3649,6.95e-07 ± 1.9e-08 m3/mol
same,excess molar volume,[1]; x1 = 0.4391,7.63e-07 ± 1.9e-08 m3/mol
same,excess molar volume,[1]; x1 = 0.5053,8.03e-07 ± 1.9e-08 m3/mol
same,excess molar volume,[1]; x1 = 0.5658,7.98e-07 ± 1.9e-08 m3/mol
same,excess molar volume,[1]; x1 = 0.6233,7.82e-07 ± 1.9e-08 m3/mol
same,excess molar volume,[1]; x1 = 0.6778,7.45e-07 ± 1.9e-08 m3/mol
same,excess molar volume,[1]; x1 = 0.7277,6.88e-07 ± 1.9e-08 m3/mol
same,excess molar volume,[1]; x1 = 0.7752,6.07e-07 ± 1.8e-08 m3/mol
same,excess molar volume,[1]; x1 = 0.8185,5.23e-07 ± 1.8e-08 m3/mol
same,excess molar volume,[1]; x1 = 0.8587,4.3e-07 ± 1.8e-08 m3/mol
same,excess molar volume,[1]; x1 = 0.8969,3.33e-07 ± 1.7e-08 m3/mol
same,excess molar volume,[1]; x1 = 0.9324,2.44e-07 ± 1.7e-08 m3/mol
same,excess molar volume,[1]; x1 = 0.9677,1.14e-07 ± 1.6e-08 m3/mol
same,excess molar enthalpy,[2]; x1 = 0.1196,0.103 ± 0.00198 kcal/mol
same,excess molar enthalpy,[2]; x1 = 0.2114,0.166 ± 0.00287 kcal/mol
same,excess molar enthalpy,[2]; x1 = 0.3026,0.217 ± 0.00382 kcal/mol
same,excess molar enthalpy,[2]; x1 = 0.3904,0.251 ± 0.0043 kcal/mol
same,excess molar enthalpy,[2]; x1 = 0.469,0.269 ± 0.00454 kcal/mol
same,excess molar enthalpy,[2]; x1 = 0.5373,0.273 ± 0.00454 kcal/mol
same,excess molar enthalpy,[2]; x1 = 0.5951,0.267 ± 0.00454 kcal/mol
same,excess molar enthalpy,[2]; x1 = 0.6196,0.26 ± 0.0043 kcal/mol
same,excess molar enthalpy,[2]; x1 = 0.6625,0.247 ± 0.0043 kcal/mol
same,excess molar enthalpy,[2]; x1 = 0.7073,0.228 ± 0.00382 kcal/mol
same,excess molar enthalpy,[2]; x1 = 0.7545,0.203 ± 0.00359 kcal/mol
same,excess molar enthalpy,[2]; x1 = 0.8044,0.177 ± 0.00311 kcal/mol
same,excess molar enthalpy,[2]; x1 = 0.8552,0.143 ± 0.00263 kcal/mol
same,excess molar enthalpy,[2]; x1 = 0.9052,0.101 ± 0.00196 kcal/mol
same,excess molar enthalpy,[2]; x1 = 0.9542,0.0541 ± 0.00127 kcal/mol
CCCCCOC(=O)CC [pentyl propanoate] + CCCCCCCCCCCCCCC,excess molar volume,[1]; x1 = 0.0451,1.37e-07 ± 1.6e-08 m3/mol
same,excess molar volume,[1]; x1 = 0.1011,2.83e-07 ± 1.7e-08 m3/mol
same,excess molar volume,[1]; x1 = 0.1866,4.41e-07 ± 1.8e-08 m3/mol
same,excess molar volume,[1]; x1 = 0.2665,5.63e-07 ± 1.8e-08 m3/mol
same,excess molar volume,[1]; x1 = 0.341,6.68e-07 ± 1.9e-08 m3/mol
same,excess molar volume,[1]; x1 = 0.4128,7.28e-07 ± 1.9e-08 m3/mol
same,excess molar volume,[1]; x1 = 0.478,7.64e-07 ± 1.9e-08 m3/mol
same,excess molar volume,[1]; x1 = 0.5422,7.75e-07 ± 1.9e-08 m3/mol
same,excess molar volume,[1]; x1 = 0.5989,7.59e-07 ± 1.9e-08 m3/mol
same,excess molar volume,[1]; x1 = 0.6522,7.35e-07 ± 1.9e-08 m3/mol
same,excess molar volume,[1]; x1 = 0.7029,6.74e-07 ± 1.9e-08 m3/mol
same,excess molar volume,[1]; x1 = 0.7542,6.2e-07 ± 1.8e-08 m3/mol
same,excess molar volume,[1]; x1 = 0.7997,5.33e-07 ± 1.8e-08 m3/mol
same,excess molar volume,[1]; x1 = 0.8438,4.51e-07 ± 1.8e-08 m3/mol
same,excess molar volume,[1]; x1 = 0.8845,3.62e-07 ± 1.7e-08 m3/mol
same,excess molar volume,[1]; x1 = 0.924,2.42e-07 ± 1.7e-08 m3/mol
same,excess molar volume,[1]; x1 = 0.9627,1.57e-07 ± 1.6e-08 m3/mol
same,excess molar enthalpy,[2]; x1 = 0.0757,0.0662 ± 0.00143 kcal/mol
same,excess molar enthalpy,[2]; x1 = 0.1563,0.124 ± 0.00232 kcal/mol
same,excess molar enthalpy,[2]; x1 = 0.2383,0.174 ± 0.00311 kcal/mol
same,excess molar enthalpy,[2]; x1 = 0.3152,0.212 ± 0.00359 kcal/mol
same,excess molar enthalpy,[2]; x1 = 0.3915,0.238 ± 0.00406 kcal/mol
same,excess molar enthalpy,[2]; x1 = 0.4596,0.251 ± 0.0043 kcal/mol
same,excess molar enthalpy,[2]; x1 = 0.52,0.254 ± 0.0043 kcal/mol
same,excess molar enthalpy,[2]; x1 = 0.5607,0.251 ± 0.0043 kcal/mol
same,excess molar enthalpy,[2]; x1 = 0.5843,0.246 ± 0.0043 kcal/mol
same,excess molar enthalpy,[2]; x1 = 0.6262,0.236 ± 0.00406 kcal/mol
same,excess molar enthalpy,[2]; x1 = 0.6747,0.22 ± 0.00382 kcal/mol
same,excess molar enthalpy,[2]; x1 = 0.7264,0.2 ± 0.00359 kcal/mol
same,excess molar enthalpy,[2]; x1 = 0.7806,0.174 ± 0.00311 kcal/mol
same,excess molar enthalpy,[2]; x1 = 0.8352,0.141 ± 0.00263 kcal/mol
same,excess molar enthalpy,[2]; x1 = 0.892,0.0996 ± 0.00194 kcal/mol
same,excess molar enthalpy,[2]; x1 = 0.9477,0.0535 ± 0.00124 kcal/mol
CCCOC(=O)CC [propyl propanoate] + CCCCCCCCC,excess molar volume,[1]; x1 = 0.0358,1.43e-07 ± 1.6e-08 m3/mol
same,excess molar volume,[1]; x1 = 0.0804,2.79e-07 ± 1.7e-08 m3/mol
same,excess molar volume,[1]; x1 = 0.1547,4.77e-07 ± 1.8e-08 m3/mol
same,excess molar volume,[1]; x1 = 0.2247,6.11e-07 ± 1.8e-08 m3/mol
same,excess molar volume,[1]; x1 = 0.2939,7.16e-07 ± 1.9e-08 m3/mol
same,excess molar volume,[1]; x1 = 0.3601,7.97e-07 ± 1.9e-08 m3/mol
same,excess molar volume,[1]; x1 = 0.4243,8.28e-07 ± 1.9e-08 m3/mol
same,excess molar volume,[1]; x1 = 0.4879,8.32e-07 ± 1.9e-08 m3/mol
same,excess molar volume,[1]; x1 = 0.5463,8.3e-07 ± 1.9e-08 m3/mol
same,excess molar volume,[1]; x1 = 0.6022,7.94e-07 ± 1.9e-08 m3/mol
same,excess molar volume,[1]; x1 = 0.6569,7.54e-07 ± 1.9e-08 m3/mol
same,excess molar volume,[1]; x1 = 0.7113,6.79e-07 ± 1.9e-08 m3/mol
same,excess molar volume,[1]; x1 = 0.7635,6.03e-07 ± 1.8e-08 m3/mol
same,excess molar volume,[1]; x1 = 0.8139,4.89e-07 ± 1.8e-08 m3/mol
same,excess molar volume,[1]; x1 = 0.8623,4.1e-07 ± 1.7e-08 m3/mol
same,excess molar volume,[1]; x1 = 0.9092,3.02e-07 ± 1.7e-08 m3/mol
same,excess molar volume,[1]; x1 = 0.9537,1.55e-07 ± 1.6e-08 m3/mol
same,excess molar enthalpy,[2]; x1 = 0.0729,0.0736 ± 0.00155 kcal/mol
same,excess molar enthalpy,[2]; x1 = 0.1505,0.13 ± 0.00239 kcal/mol
same,excess molar enthalpy,[2]; x1 = 0.2274,0.179 ± 0.00311 kcal/mol
same,excess molar enthalpy,[2]; x1 = 0.3035,0.216 ± 0.00382 kcal/mol
same,excess molar enthalpy,[2]; x1 = 0.3733,0.239 ± 0.00406 kcal/mol
same,excess molar enthalpy,[2]; x1 = 0.4372,0.25 ± 0.0043 kcal/mol
same,excess molar enthalpy,[2]; x1 = 0.4858,0.252 ± 0.0043 kcal/mol
same,excess molar enthalpy,[2]; x1 = 0.5248,0.252 ± 0.0043 kcal/mol
same,excess molar enthalpy,[2]; x1 = 0.5688,0.248 ± 0.0043 kcal/mol
same,excess molar enthalpy,[2]; x1 = 0.6152,0.239 ± 0.00406 kcal/mol
same,excess molar enthalpy,[2]; x1 = 0.6667,0.223 ± 0.00382 kcal/mol
same,excess molar enthalpy,[2]; x1 = 0.7215,0.198 ± 0.00335 kcal/mol
same,excess molar enthalpy,[2]; x1 = 0.7776,0.169 ± 0.00311 kcal/mol
same,excess molar enthalpy,[2]; x1 = 0.8356,0.135 ± 0.00239 kcal/mol
same,excess molar enthalpy,[2]; x1 = 0.8948,0.0929 ± 0.00184 kcal/mol
same,excess molar enthalpy,[2]; x1 = 0.951,0.0476 ± 0.00115 kcal/mol
